Patent EP0928784B1, “Sertraline polymorph having improved water solubility” (TORCAN CHEMICAL Ltd, priority 1997, dated 1999)
Counter-ions that a name gives are not always drawn. Like-named read-outs stand apart in the source and are kept apart here.

Assays:
[1] = Solubility in aqueous fluids (qualitative, no method described); format: physicochemical
[2] = as reported in U.S. Patent 5,248,699, among Forms I-V; cited from earlier work
[3] = Stability of the crystalline form (qualitative, no method described); format: physicochemical; settings: applicant's statement
[4] = Dissolution rate (qualitative, no method described); format: physicochemical; settings: with regard to bioavailability in pharmaceutical formulations

Row | solubility ([1]; prepared in applicant's laboratory according to Sysko et al., aqueous fluids) | stability [3] | solubility in aqueous fluids ([1]; as compared with Form I sertraline hydrochloride) | Structure (SMILES) | stability [2] | dissolution rate [4]
1 | extremely insoluble | stable as reported |  | CN[C@H]1CC[C@@H](c2ccc(Cl)c(Cl)c2)c2ccccc21 [sertraline hydrochloride Form I, (1S-cis)-4-(3,4-dichlorophenyl)-1,2,3,4-tetrahydro-N-methyl-1-naphthalenamine] | greatest stability | too slow to provide adequate bioavailability
2 |  | acceptable stability | enhanced solubility in aqueous fluids | CN[C@H]1CC[C@@H](c2ccc(Cl)c(Cl)c2)c2ccccc21 [polymorph T1, (1S-cis)-4-(3,4-dichlorophenyl)-1,2,3,4-tetrahydro-N-methyl-1-naphthalenamine] |  | 
